Reference: US20220257665A1, “APPLICATION OF […] AGENTS TO STEM CELL DERIVED CARDIOMYOCYTES AND USES THEREOF” (priority 2019, published 2022)

Experiments:
[1] = test system: GJA5; assay: Nanostring gene expression, hESC-derived cardiomyocytes in monolayer: GJA5; type: cell-based, human; details: 0.1 μM and 1 μM, 5 days exposure
Method: (§3) Blank medium, addition of solvents as well as cardiomyocytes cultured for 9 days and day 42 were used as control. Beating of cells was assessed after 48 h, 72 h and 96 h. Cells were harvested following incubation for 10 minutes in RLTplus buffer (Qiagen). Changes in gene expression were determined using a custom nanostring gene panel (NanoString Technologies) according to manufacturer's instruction for the following target sequences including 7 housekeeping genes listed in Table 1.
(§4) To study the direct impact of antiarrhythmic drugs on the properties of hESC-derived cardiomyocytes, changes in expression level of selected genes were analyzed that are associated with action potential formation (HCN1, HCN4, KCNA5, KCNE4, KCNH7, KCNJ3, KCNJ5, SCN1B, SCN5A), electrical signal propagation (GJA1, GJA5, GJD3), calcium handling (CACNA1C, CACNA1D, CACNA1G, RYR2, PLN), cardiac maturation (HOPX, MYH7, MYL2, TNN13) and cardiac hypertrophy (NPPA, NPPB) as well as pan-cardiomyocyte markers (NKX2-5, TNNT2, ACTA2).

[2] = test system: NPPA; assay: Nanostring gene expression, hESC-derived cardiomyocytes in monolayer: NPPA; type: cell-based, human
Method: as §3, §4

[3] = test system: NKX2-5; assay: Nanostring gene expression, hESC-derived cardiomyocytes in monolayer: NKX2-5; type: cell-based, human
Method: as §3, §4

[4] = test system: TNNT2; assay: Nanostring gene expression, hESC-derived cardiomyocytes in monolayer: TNNT2; type: cell-based, human
Method: as §3, §4

[5] = test system: ACTA2; assay: Nanostring gene expression, hESC-derived cardiomyocytes in monolayer: ACTA2; type: cell-based, human; details: 5 days exposure to 0.1 μM and 1 μM amiodarone (FIG. 7)
Method: as §3, §4

[6] = test system: hESC-derived cardiomyocytes; assay: Beating of hESC-derived cardiomyocytes after exposure to antiarrhythmic drugs; type: cell-based, human
Method: Dissociated cardiomyocytes were seeded in RPMI1640 medium supplemented with 2% B27 and 0.1% Pen/Strep (Gibco) on laminin-521 or geltrex (Life Technologies)-coated plates at a cell density of 1×10^5/cm^2. […] Blank medium, addition of solvents as well as cardiomyocytes cultured for 9 days and day 42 were used as control. Beating of cells was assessed after 48 h, 72 h and 96 h.

[7] = test system: GJA5; assay: Gene expression in 3D suspension aggregates 48 h after removal of the agent: GJA5; type: cell-based, human; details: 10 μM for about 120 h, measured 48 h after treatment, 3D aggregates
Method: (§1) In order to verify the lasting effect and the robustness across different culture systems, we tested the effect of the antiarrhythmic agents on the gene expression profile of the stem-cell derived cardiomyocytes using 3D suspension aggregates and measured the gene expression 48 h after removal of the anti-arrhythmic agents.
(§2) The aggregates were subsequently maintained in 6-well suspension plates on an orbital shaker (75 rpm) at a cell density of about 1.5×10^6 cells/ml in 3 mL medium.

[8] = test system: NPPA; assay: Gene expression in 3D suspension aggregates 48 h after removal of the agent: NPPA; type: cell-based, human; details: 10 μM for about 120 h, measured 48 h after treatment, 3D aggregates
Method: as §1, §2

[9] = test system: human induced pluripotent stem cell derived cardiomyocytes (iCell2 cardiomyocytes); assay: Ca2+-recordings, beat-to-beat variability (CV), single agents; type: cell-based; details: 24 h after withdrawal
Excerpt: In order to determine the lasting impact on the electrophysiological properties of the stem-cell derived cardiomyocytes following exposure to anti-arrhythmic agents, we conducted functional cardiomyocyte testing by means of Ca^2+-recordings and determined the arrhythmogenic potential of the stem-cell derived cardiomyocyte population after exposure to the anti-arrhythmic agents. […] (Kazuto Yamazaki et al, Beat-to-Beat Variability in Field Potential Duration in Human Embryonic Stem Cell-Derived Cardiomyocyte Clusters for Assessment of_Arrhythmogenic Risk, and a Case Study of Its Application, Pharmacology & Pharmacy, Vol. 5 No. 1, 2014, pp. 117-128). Of note, all Ca^2+-recordings were conducted at least 24 h after exposure to exclude the known direct effects of the agents via ion channel modulation. […] The cells were delivered as frozen vials and stored until use in liquid nitrogen. All culturing media necessary for thawing and culturing was supplied by the cell supplier. Thawing, plating and cultivation procedures were followed according to the protocol supplied by the manufacturer. Cells were plated directly onto the 384-well Greiner μClear plates coated with fibronectin. […] Media was changed (90%) one day after plating and then every second day and 3 hours before the experiments for the pilot study. […] Treatment was ended by exchanging medium to standard cultivation medium on DIV 6. Recording took place at DIV 7. Experiments were performed at a minimum of n=10 for each compound concentration. For Ca^2+ imaging experiments media was exchanged for the recordings by a HEPES buffered recording solution. A fluorescent Ca^2+ indicator (Cal-520-AM) was applied at a concentration of 2 μM and allowed to accumulate in the cells for 30 min before the buffer was exchanged again to dye-free buffer. Cells were allowed to recover for 10 min at 37° C. in the Hamamatsu FDSS recording system. All experiments were performed at 37° C. The framerate of the camera was set to a minimum of 35 Hz for recording and a binning of 4×4. To assess if the quality was sufficient for the experiments several parameters were reviewed (by-eye inspection), including regularity of the beating, shape and amplitude of the Ca^2+ signals and variability of these parameters between the different wells. Since the cells were spontaneously active, no electrical stimulation was applied. Cells were recorded for 5 min prior to compound application. 200 μM Moxifloxacin was applied after the baseline phase in a single-concentration-per-well fashion, followed by a wash-in phase of 5 min. Fluorescent activity was then recorded for additional 5 min. Moxifloxacin without compound preincubation was included as control (n=18), distributed over multiple plates. […] Coefficient of variation was calculated as where σ denotes the standard deviation and p represents the mean.

[10] = cited from earlier work
[11] = 10 nM, proarrhythmic conditions (moxifloxacine)
[12] = 100 nM, proarrhythmic conditions (moxifloxacine)

Row | Compound | reduction of CV (beat-to-beat variability) compared to control ([9]; 10 nM, baseline conditions) [%] | reduction of CV (beat-to-beat variability) compared to control [9, 11] [%] | reduction of CV (beat-to-beat variability) compared to control ([9]; 100 nM, baseline conditions) [%] | reduction of CV (beat-to-beat variability) compared to control [9, 12] [%] | typical plasma concentrations in vivo [10] [µg/mL] | further results
1 | CCCCc1oc2ccccc2c1C(=O)c1cc(I)c(OCCN(CC)CC)c(I)c1 [amiodarone] | 76.5 | 83.3 | – | – | – | upregulation of GJA5 [1]: > 3 fold; reduction in NPPA expression ([2]; amiodarone treatment, 5 days exposure to 0.1 μM and 1 μM (FIG. 3)): about 3 fold; changes of the expression of NKX2-5 ([3]; 5 days exposure to 0.1 μM and 1 μM amiodarone (FIG. 5)): did not result in changes; changes of the expression of TNNT2 ([4]; 5 days exposure to 0.1 μM and 1 μM amiodarone (FIG. 6)): did not result in changes; changes of the expression of ACTA2 [5]: did not result in changes; beating frequency ([6]; 1 μM): clearly reduced; beating frequency ([6]; 10 μM): abrogated; increase in GJA5 [7]: about 2.7 fold; decrease in NPPA [8]: about 2 fold
2 | CC(C)NCC(O)COc1cccc2ccccc12 (stereo not drawn) [propranolol] | – | – | 73.7 | 88.5 | 0.0021 to 0.3 | –
3 | CCN(CC)CC(=O)Nc1c(C)cccc1C [Lidocaine, lidocaine] | – | – | 80.8 | 84.7 | – | NPPA expression ([2]; 1 μM, 10 μM and 100 μM lidocaine, 5 days, concentration dependent (FIG. 9)): decreased; expression of NKX2-5 ([3]; 1 μM, 10 μM and 100 μM lidocaine, 5 days (FIG. 11)): without effecting the expression; expression of TNNT2 ([4]; 1 μM, 10 μM and 100 μM lidocaine, 5 days (FIG. 12)): without effecting the expression
4 | Cc1cccc(C)c1OCC(C)N (stereo not drawn) [Mexiletine, mexiletine] | – | – | 76.79 | 77.5 | 0.6 to 1.7 | –
5 | CC(C)NCC(O)c1ccc(NS(C)(=O)=O)cc1 (stereo not drawn) [Sotalol, sotalol] | – | – | 79.4 | 84.9 | 1 to 3 | –
6 | COCCc1ccc(OCC(O)CNC(C)C)cc1 (stereo not drawn) [metoprolol] | 79.2 | 83.2 | – | – | – | –
